Data reported in PubChem BioAssay (NCI).
Where “and” joins values, the source holds several entries; their conditions need not be identical. Equal values may be shown once.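 Briefly, cells in 96-well plates were exposed to five compound concentrations for 48 h, and endpoints were estimated by linear interpolation. The concentration for 50% growth inhibition is given as GI50. TGI: total growth inhibition.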

What was measured:
Experiment in all cases: NCI-60 cell line screen, 48 h
[1] = tested on: CCRF-CEM leukemia
[2] = tested on: 786-0 renal
[3] = tested on: U251 CNS
[4] = tested on: OVCAR-8 ovarian
[5] = tested on: MDA-MB-435
[6] = tested on: SK-MEL-5 melanoma
[7] = tested on: SW-620 colon
[8] = tested on: SF-295 CNS
[9] = tested on: PC-3 prostate
[10] = tested on: HCT-15 colon

Structure (SMILES)	GI50 [1]	TGI [1]	GI50 [2]	TGI [2]	GI50 [3]	TGI [3]	GI50 [4]	TGI [4]	GI50 [5]	TGI [5]	GI50 [6]	TGI [6]	GI50 [7]	TGI [7]	GI50 [8]	TGI [8]	GI50 [9]	TGI [9]	GI50 [10]	TGI [10]
COC(=O)c1c2c(c(C)[n+]([O-])c1C)C(=O)C=C(NCc1ccccc1)C2=O	0.668 µM	3.71 µM	2.33 µM	6.88 µM	1.33 µM	3.02 µM	0.408 µM	2.16 µM	0.202 µM	0.391 µM	0.206 µM	0.48 µM	0.375 µM	1.54 µM	1.11 µM	2.35 µM	0.379 µM	7.34 µM	0.426 µM	1.8 µM
C[C@H]1[C@H](C)N1CC(O)Cn1ccnc1[N+](=O)[O-] (some centres not stated)		> 100 µM		> 100 µM		> 100 µM		> 100 µM		> 100 µM		> 100 µM		> 100 µM		> 100 µM		> 100 µM		> 100 µM
COc1ccc([C@H](CC(=O)O)N2CCN(CCCc3ccc4c(n3)NCCC4)C2=O)cn1	> 100 µM	> 100 µM	0.346 µM	> 100 µM	0.934 µM	> 100 µM	0.277 µM	> 40 µM	0.0216 µM	0.0602 µM	0.0501 µM	0.173 µM		> 100 µM	47.6 µM	> 100 µM	> 100 µM	> 100 µM	0.311 µM	
CCCCNNC(=O)c1ccc(Br)cc1	2.46 µM	> 50 µM	11.8 µM	> 50 µM	3.78 µM	28.5 µM	1.5 µM	> 50 µM	2.21 µM	> 50 µM	1.94 µM	7.77 µM	2.17 µM	> 50 µM	2.54 µM	14.7 µM	4.12 µM	> 50 µM	6.87 µM	> 50 µM
CCC(=O)N1C/C(=C/c2ccc(Cl)cc2)C(=O)/C(=C/c2ccc(Cl)cc2)C1	0.422 µM	> 22.3 µM	0.332 µM	1.22 µM	0.28 µM	0.897 µM	0.451 µM	2.12 µM	0.403 µM	1.64 µM	1.46 µM	2.81 µM	0.287 µM	0.94 µM	0.514 µM	2.09 µM	0.464 µM	2.4 µM	0.386 µM	1.25 µM
O=C(CCN1CCCC1)Nc1ccc2c(NCc3ccccc3)c3ccccc3nc2c1	0.493 µM		0.684 µM	1.99 µM	0.395 µM	1.73 µM	0.452 µM	2.84 µM	0.481 µM	1.69 µM	1.31 µM	2.61 µM	0.316 µM	1.44 µM	0.494 µM	1.91 µM	0.442 µM	2.03 µM	1.86 µM	6.97 µM
CN(C)C(=O)Nc1nc2cc(Cl)c(Cl)cc2[nH]1	0.953 µM	> 100 µM	1.21 µM	> 100 µM	0.636 µM	> 51.1 µM	2.46 µM	> 60.4 µM	0.2 µM	3.85 µM	0.441 µM	> 100 µM	0.476 µM	> 100 µM	0.603 µM	39.1 µM	0.566 µM	> 51.8 µM	0.546 µM	> 100 µM
O=C1CCc2c(sc3[nH]c(=S)n(-c4cc(C(F)(F)F)cc(C(F)(F)F)c4)c(=O)c23)C1	0.349 µM	5.81 µM	0.602 µM	10.5 µM	0.364 µM	1.97 µM	0.457 µM	> 37.8 µM	1.22 µM	5.45 µM	0.217 µM	0.465 µM	0.376 µM	15.7 µM	0.318 µM	1.1 µM	0.307 µM	2.35 µM	0.338 µM	1.36 µM
COc1ccccc1/C=C1\COc2ccc(-c3ccccc3)cc2C1=O	2.08 µM	15.2 µM	4.31 µM	> 100 µM	2.12 µM	6.24 µM	3.27 µM	10.5 µM	2.11 µM	> 100 µM	2.19 µM	7.61 µM	2.39 µM	5.6 µM	4 µM	85.4 µM	4.28 µM	> 100 µM	2.64 µM	13.1 µM
COc1ccc(/C=C(/c2ccccc2)[N+](=O)[O-])c(OC)c1	0.46 µM	4.76 µM	1.62 µM	3.16 µM	1.48 µM	3.15 µM	1.66 µM	5.14 µM	1.45 µM	2.97 µM	1.79 µM	3.26 µM	1.73 µM	4.08 µM	1.97 µM	3.86 µM	1.32 µM	2.79 µM	0.576 µM	2.13 µM
O=S(=O)(O)O		684 µM		1490 µM		1480 µM		1830 µM		634 µM		2200 µM		1030 µM		2060 µM		1190 µM		1820 µM
O=[N+]([O-])/C=C/c1c(Cl)cccc1Cl		> 18.2 µM		1.52 µM		9.27 µM		4.13 µM		4.62 µM		8.78 µM		2.18 µM		14.5 µM		5.58 µM		5.04 µM
OC1(c2ccccc2)C2CC=CC2C1(c1ccccc1)c1ccccc1 (configuration not stated)		> 100 µM		> 100 µM		> 100 µM		> 100 µM		62.1 µM		36.2 µM		> 100 µM		> 100 µM		> 100 µM		> 100 µM
O=C1NC(N/N=C\C(O)C(O)C(O)C(O)CO)=N/C1=C/c1ccccc1 (configuration not stated)	37.1 µM and 10.2 µM and 37.7 µM	> 100 µM and 97.7 µM and > 57.7 µM	57.5 µM and 19.3 µM and > 100 µM	> 100 µM and 41.3 µM	> 100 µM and 17.5 µM	> 100 µM and 42.8 µM	> 100 µM and 22.8 µM	> 100 µM and 52.5 µM	85.7 µM and 15.7 µM and > 100 µM	> 100 µM and 34.9 µM	44.5 µM and 14.8 µM and > 100 µM	> 100 µM and 29.2 µM	54.2 µM and 23 µM and > 100 µM	> 100 µM and 83.4 µM	84.1 µM and 16.2 µM and > 100 µM	> 100 µM and 38.2 µM	47.5 µM and 14.5 µM and > 100 µM	> 100 µM and 28 µM	51.9 µM and 12.7 µM and > 100 µM	> 100 µM and 33.8 µM
C=C1C(=O)O[C@H]2[C@H]1CC/C(COC(=O)CCCCCC(=O)OC/C1=C/CC[C@@]3(C)O[C@H]3[C@H]3OC(=O)C(=C)[C@@H]3CC1)=C\CC[C@@]1(C)O[C@@H]21	0.393 µM	3.86 µM	1.09 µM	2.49 µM	2.64 µM	9.61 µM	2.65 µM	9.71 µM	2.58 µM	8.92 µM	1.91 µM	4.37 µM	1.35 µM	3.14 µM	4.09 µM	16.5 µM	2.24 µM	5.96 µM	1.68 µM	3.81 µM
CN1C(=O)c2ccc3ccccc3c2C1=O		> 100 µM		> 100 µM		> 100 µM		> 100 µM		> 100 µM		> 100 µM		> 100 µM		> 100 µM		> 100 µM		> 100 µM
CCCCCCCCCCCC1=NC(C)(C)CN1C(C)(C)CO	2.94 µM	12.4 µM	1.93 µM	3.89 µM	1.9 µM	4.77 µM	3.33 µM	13.4 µM	1.73 µM	3.5 µM	1.79 µM	3.3 µM	1.67 µM	3.08 µM	2.04 µM	4.29 µM	3.11 µM	12.8 µM	2.15 µM	4.74 µM
O=c1c2c([nH]c3nccn13)CCC2		> 10 µM		> 10 µM		> 10 µM		> 10 µM		> 10 µM		> 10 µM		> 10 µM		> 10 µM		> 10 µM		> 10 µM
